Experimental data taken from paper PMC5695821, “Pharmacological inhibition of RORγt suppresses the Th17 pathway and alleviates arthritis in vivo” (PLoS ONE, 2017).

Target: T1, RORγt (Homo sapiens, UniProt P51449)
T1 construct: gene RORC; LBD, amino acids 264–518, His6-tagged
T1 sequence (P51449 264-518): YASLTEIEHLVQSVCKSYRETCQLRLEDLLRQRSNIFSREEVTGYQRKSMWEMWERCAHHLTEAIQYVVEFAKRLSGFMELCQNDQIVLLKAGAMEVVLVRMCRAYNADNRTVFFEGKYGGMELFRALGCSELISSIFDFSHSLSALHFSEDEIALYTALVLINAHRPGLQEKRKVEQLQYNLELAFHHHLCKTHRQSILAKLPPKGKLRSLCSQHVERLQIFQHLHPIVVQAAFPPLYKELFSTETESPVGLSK
Assay: TR-FRET displacement of RIP140 co-activator peptide from purified RORγt-LBD; supported by DSLS thermal shift (ΔTagg […] °C)
Type: binding

IC50: 19 nM
Structure (SMILES): Cc1ncc(C(=O)Nc2cn3ccnc3c(CN3CCN(C(=O)C4CCCC4)[C@@H](C)C3)c2C)cn1 [compound 1, (S)-N-(8-((4-(cyclopentanecarbonyl)-3-methylpiperazin-1-yl)methyl)-7-methylimidazo[1,2-a]pyridin-6-yl)-2-methylpyrimidine-5-carboxamide]
